Laboratory results: patent publication US9029293B2, “Tobacco axillary bud inhibitor and tobacco axillary bud-inhibiting method” (priority 2011, dated 2015)

Columns and labels:
[1] = tested on: axillary buds of tobacco Michinoku 1 (burley cultivar); experiment: Axillary bud growth inhibition, pot test in glasshouse, spraying after top pruning (burley cultivar); type: in vivo, Nicotiana tabacum; conditions: 28 days after spraying
Procedure: (§1) Tobacco seedlings of Tsukuba 1 (flue-cured cultivar) and Michinoku 1 (burley cultivar) were transplanted to 1/5000a Wagner pots filled with Kureha garden nursery soil. The plants were grown in a glasshouse, and the floral axis parts were removed at the time of single-flower bloom of tobacco (top pruning).
(§2) The formulations of the inhibitors for tobacco axillary bud growth obtained in Formulation Examples 1 to 4 above were each diluted with water to predetermined concentrations, and 20 ml of the water-diluted solutions of the respective inhibitors were separately sprayed using a contact-type axillary bud inhibitor spraying instrument equipped with a spot exhaust nozzle (Examples 1 to 4 and 5 to 8). In addition, butralin (trade name: Blue Ribbon) (Comparative Examples 1 to 2 and 5 to 6) and decyl alcohol (trade name: Contact) (Comparative Examples 3 to 4 and 7 to 8) were used for tests as comparative examples in the same manner as above. In the cases of both the flue-cured cultivar and burley cultivar, one plant was planted per pot, and the tests were carried out in duplicate.
(§3) For the respective cases, states of inhibition of axillary bud growth 28 days after the spraying were investigated together with untreated groups sprayed with no inhibitor, and axillary bud growth inhibition ratios were calculated by the following equation. Axillary bud growth inhibition ratio=(fresh weight of axillary buds per plant of untreated group−fresh weight of axillary buds per plant of treated group)÷(fresh weight of axillary buds per plant of untreated group)×100 [Math. 1]
(§4) Formulation of Formulation Example 1 or Formulation Example 3 was diluted with water to predetermined concentrations and mixed with decyl alcohol (manufactured by Wako Pure Chemical Industries, Ltd.), 2-ethylhexanol (manufactured by Wako Pure Chemical Industries, Ltd.) or geraniol (manufactured by Wako Pure Chemical Industries, Ltd.) at predetermined concentrations, and the resultant was adjusted and used for tests (Examples 9 to 14 and 15 to 20). In addition, as comparative examples, the formulation of Formulation Example 1 or Formulation Example 3 diluted with water to predetermined concentrations (Comparative Examples 9 to 10 and 14 to 15) and decyl alcohol, 2-ethylhexanol or geraniol diluted with water to a predetermined concentration were used for tests (Comparative Examples 11 to 13 and 16 to 18).
(§5) The respective inhibitors were sprayed in the same manner as in Test Example 1, and states of inhibition of axillary bud growth 28 days after the spraying were investigated together with untreated groups sprayed with no inhibitor. Then, axillary bud growth inhibition ratios were calculated.

[2] = tested on: axillary buds of tobacco Tsukuba 1 (flue-cured cultivar); experiment: Axillary bud growth inhibition, pot test in glasshouse, spraying after top pruning (flue-cured cultivar); type: in vivo, Nicotiana tabacum; conditions: 28 days after spraying
Procedure: as §1, §2, §3, §4, §5

[3] = tested on: leaves (first to fourth from the top) of tobacco Michinoku 1 (burley cultivar); experiment: Harmful effect of inhibitor on leaves (burley cultivar); design: species or system Nicotiana tabacum; conditions: in vivo
Procedure: as §1, §2
Further, the presence or absence of the harmful effect of each inhibitor was evaluated in one of the following four categories depending on the degrees of growth inhibition, gangrene, change in color, deformation and the like of leaves (first to fourth leaves from the top). […]

[4] = active ingredient 0.03%, 20 ml sprayed
[5] = active ingredient 0.35%, 20 ml sprayed
[6] = active ingredient 2.6%, 20 ml sprayed

| Compound | Axillary bud growth inhibition ratio (%) ([1]; active ingredient 0.5%) | Axillary bud growth inhibition ratio (%) ([2]; active ingredient 0.5%) | Axillary bud growth inhibition ratio (%) [1, 4] | Harmful effect of inhibitor [3] | Axillary bud growth inhibition ratio (%) [2, 4] | Axillary bud growth inhibition ratio (%) ([1]; active ingredient 0.005%) | Axillary bud growth inhibition ratio (%) ([2]; active ingredient 0.005%) | further results |
| --- | --- | --- | --- | --- | --- | --- | --- | --- |
| CCCCC(CC)CO (centres unmarked) [2-ethylhexanol] | 28% | 21% | – | – | – | – | – | – |
| CCC(C)Nc1c([N+](=O)[O-])cc(C(C)(C)C)cc1[N+](=O)[O-] (centres unmarked) [Butralin, butralin] | – | – | 48% | Absent | 44% | – | – | Axillary bud growth inhibition ratio (%) [1, 5]: 97%; Axillary bud growth inhibition ratio (%) [2, 5]: 98% |
| CCCCCCCCCCO [Decyl Alcohol, decyl alcohol] | 37% | 30% | 0% | Absent | 0% | – | – | Axillary bud growth inhibition ratio (%) [1, 6]: 94%; Axillary bud growth inhibition ratio (%) [2, 6]: 91% |
| CSC(=O)c1c(C(F)F)nc(C(F)(F)F)c(C(=O)SC)c1CC(C)C [Dithiopyr, dithiopyr] | – | – | – | – | – | 78% | 75% | – |
| CC(C)=CCC/C(C)=C/CO [Geraniol, geraniol] | 32% | 26% | – | – | – | – | – | – |
| C#CC(C)(C)NC(=O)c1cc(Cl)cc(Cl)c1 [Propyzamide, propyzamide] | – | – | – | – | – | 72% | 70% | – |
